According to ChEMBL document CHEMBL1201862, “PubChem BioAssay data set” (2004):
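Five concentrations, 48 hours, 96-well plates. The concentration for 50% growth inhibition is given as GI50.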 The source made the active and inactive calls. Cut-off read from the data, not from the text of the source: active = GI50 up to about 1.1 µM and inactive = higher.

Columns and labels:
Experiment in all cases: NCI tumour cell line growth inhibition, 48 h
HOP-62 = system: HOP-62
U-251 = system: U-251
COLO 205 = system: COLO 205
HCC 2998 = system: HCC 2998
RPMI-8226 = system: RPMI-8226
A549 = system: A549
OVCAR-3 = system: OVCAR-3
NCI-H226 = system: NCI-H226
MOLT-4 = system: MOLT-4
IGROV-1 = system: IGROV-1
SK-MEL-2 = system: SK-MEL-2
SF-539 = system: SF-539
OVCAR-4 = system: OVCAR-4
UO-31 = system: UO-31
DLD-1 = system: DLD-1
HCT-15 = system: HCT-15
HT-29 = system: HT-29
ACHN = system: ACHN
SR = system: SR

SMILES | GI50 (HOP-62) | GI50 (U-251) | GI50 (COLO 205) | GI50 (HCC 2998) | GI50 (RPMI-8226) | GI50 (A549) | GI50 (OVCAR-3) | GI50 (NCI-H226) | GI50 (MOLT-4) | GI50 (IGROV-1) | GI50 (SK-MEL-2) | GI50 (SF-539) | GI50 (OVCAR-4) | GI50 (UO-31) | GI50 (DLD-1) | GI50 (HCT-15) [µM] | GI50 (HT-29) | GI50 (ACHN) | GI50 (SR)
O=C1CCCn2c3ccccc3c3ccnc1c32 | 43.1 µM (inactive) | 40.8 µM (inactive) | 41.8 µM (inactive) | 41.4 µM (inactive) | 23.6 µM (inactive) | 44.6 µM (inactive) | 37.7 µM (inactive) | 19.4 µM (inactive) | 30.8 µM (inactive) | 34.2 µM (inactive) | 47.1 µM (inactive) | 30.8 µM (inactive) | 49 µM (inactive) | 35 µM (inactive) | 38.3 µM (inactive) | 41.7 | 23.9 µM (inactive) |  | 
COc1ccc(/C(=N\NC(=O)NN)C(c2ccc(OC)cc2)C2(O)C(=O)Nc3c(Cl)cc(Cl)cc32)cc1 (configuration not stated) | > 100 µM (inactive) | > 100 µM (inactive) | > 100 µM (inactive) | > 100 µM (inactive) | 56.8 µM (inactive) | > 100 µM (inactive) | > 100 µM (inactive) | > 100 µM (inactive) | 5.93 µM (inactive) | > 100 µM (inactive) | > 100 µM (inactive) |  | > 100 µM (inactive) | > 100 µM (inactive) | > 100 µM (inactive) |  | > 100 µM (inactive) | > 100 µM (inactive) | 
Cc1cccc2c1C(=O)OC2(c1cccc2ccccc12)c1cccc2ccccc12 | 27.4 µM (inactive) | 70.1 µM (inactive) | > 100 µM (inactive) | > 100 µM (inactive) |  | > 100 µM (inactive) | > 100 µM (inactive) | > 100 µM (inactive) | > 100 µM (inactive) | > 100 µM (inactive) | > 100 µM (inactive) |  | 89.9 µM (inactive) | 79.3 µM (inactive) | > 100 µM (inactive) | > 100 | > 100 µM (inactive) | 63.5 µM (inactive) | > 100 µM (inactive)
CC1=C2C(O)C(C(C)CO)C(O)CC2(C)C(O)CC1 (configuration not stated) | > 100 µM (inactive) | > 100 µM (inactive) | > 100 µM (inactive) | > 100 µM (inactive) | > 100 µM (inactive) | > 100 µM (inactive) | > 100 µM (inactive) | > 100 µM (inactive) | > 100 µM (inactive) | > 100 µM (inactive) |  | > 100 µM (inactive) | > 100 µM (inactive) | > 100 µM (inactive) | > 100 µM (inactive) | > 100 | > 100 µM (inactive) | > 100 µM (inactive) | > 100 µM (inactive)
CCN(CC)C(=S)SS(C)(=O)=O | 18.7 µM (inactive) | 17.7 µM (inactive) | 15.4 µM (inactive) |  |  |  |  | 14.8 µM (inactive) | 15.8 µM (inactive) | > 100 µM (inactive) | 17.7 µM (inactive) | 22 µM (inactive) | 19.6 µM (inactive) | 19 µM (inactive) | 18 µM (inactive) | 13.4 | 17.3 µM (inactive) | 16.7 µM (inactive) | 
CCOC(=O)C12CC1(C(=O)OCC)C1CCC2C1 (configuration not stated) | > 100 µM (inactive) | > 100 µM (inactive) | > 100 µM (inactive) | > 100 µM (inactive) | > 100 µM (inactive) | > 100 µM (inactive) | 97.3 µM (inactive) | > 100 µM (inactive) | 90.6 µM (inactive) | > 100 µM (inactive) |  |  | > 100 µM (inactive) | > 100 µM (inactive) | > 100 µM (inactive) | > 100 | > 100 µM (inactive) | > 100 µM (inactive) | 49.9 µM (inactive)
Cc1cccc(/N=C2\NC(=O)C(CC(=O)Nc3ccc(C)cc3C)S2)c1 (configuration not stated) |  | > 100 µM (inactive) |  | > 100 µM (inactive) | 55.3 µM (inactive) | > 100 µM (inactive) | 69 µM (inactive) | 84.3 µM (inactive) | 40.4 µM (inactive) | > 100 µM (inactive) | > 100 µM (inactive) | > 100 µM (inactive) | 48.5 µM (inactive) | 66.7 µM (inactive) | > 100 µM (inactive) | > 100 | > 100 µM (inactive) | > 100 µM (inactive) | 52.6 µM (inactive)
O=P1(Oc2ccc(Cl)cc2Cl)Oc2ccc3ccccc3c2-c2c(ccc3ccccc23)O1 | 20.2 µM (inactive) | 21.1 µM (inactive) | 46.5 µM (inactive) | 24.9 µM (inactive) | 18.2 µM (inactive) | 49 µM (inactive) | 22.5 µM (inactive) | 23.3 µM (inactive) | 19.9 µM (inactive) | 26.9 µM (inactive) | 18.7 µM (inactive) | 21.6 µM (inactive) | 27.9 µM (inactive) | 20.4 µM (inactive) | 32.1 µM (inactive) | 26.5 | 42.1 µM (inactive) |  | 
C/C=C/CP(=O)(c1ccccc1)c1ccccc1 | > 100 µM (inactive) | > 100 µM (inactive) | > 100 µM (inactive) | > 100 µM (inactive) | > 100 µM (inactive) | > 100 µM (inactive) | > 100 µM (inactive) | > 100 µM (inactive) | > 100 µM (inactive) | > 100 µM (inactive) | > 100 µM (inactive) | > 100 µM (inactive) | > 100 µM (inactive) | > 100 µM (inactive) | > 100 µM (inactive) | > 100 | > 100 µM (inactive) | > 100 µM (inactive) | > 100 µM (inactive)
